According to US7402684B2, “Biaryl substituted heterocycle inhibitors of LTA4H for treating inflammation” (deCODE genectics ehf., priority 2005, dated 2008):
pIC50: −log10 of the molar value. Where a name gives a salt, the structure may show the parent alone.

Tests used:
[1] = target: T1, recombinant human LTA4 hydrolase (Homo sapiens, UniProt P09960); assay: In vitro assay testing inhibitory activity against purified recombinant human LTA4 hydrolase (LTB4 formed measured by LC-MS/MS); assay type: biochemical; settings: purified recombinant human LTA4 hydrolase 200 nM, LTA4 2 μM, 120 sec at room temperature; read-out: AvgIC50
T1 construct: A human LTA4 hydrolase full-length cDNA clone (NM_000895) was purchased from OriGene Technologies; made in house; host or cells: Escherichia coli BL21-AI
T1 sequence (P09960 1-611): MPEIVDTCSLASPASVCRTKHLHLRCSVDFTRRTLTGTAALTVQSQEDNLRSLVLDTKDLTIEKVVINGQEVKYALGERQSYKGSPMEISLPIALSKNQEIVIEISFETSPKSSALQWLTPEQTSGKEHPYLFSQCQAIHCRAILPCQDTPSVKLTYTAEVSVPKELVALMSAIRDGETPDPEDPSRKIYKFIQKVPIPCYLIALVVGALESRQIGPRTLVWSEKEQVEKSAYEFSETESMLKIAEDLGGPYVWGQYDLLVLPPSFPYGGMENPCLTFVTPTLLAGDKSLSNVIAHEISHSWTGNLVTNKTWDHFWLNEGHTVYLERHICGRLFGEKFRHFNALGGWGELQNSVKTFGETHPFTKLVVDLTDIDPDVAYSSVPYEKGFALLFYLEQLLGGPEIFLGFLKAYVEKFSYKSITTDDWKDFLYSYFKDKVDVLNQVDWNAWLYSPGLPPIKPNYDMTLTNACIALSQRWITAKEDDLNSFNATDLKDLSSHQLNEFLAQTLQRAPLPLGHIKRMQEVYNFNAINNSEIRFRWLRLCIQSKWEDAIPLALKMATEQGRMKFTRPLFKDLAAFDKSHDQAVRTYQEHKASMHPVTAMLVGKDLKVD
Description: The compounds of the invention were incubated in a series of dilutions with 200 nM of recombinant enzyme in assay buffer (100 mM Tris-HCl, 100 mM NaCl, 5 mg/ml fatty-acid free BSA, 10% DMSO, pH 8.0) for 10 min at room temperature to allow binding between LTA4 hydrolase and the inhibitors. LTA4 was prepared by alkaline hydrolysis of LTA4 methyl ester (Biomol, Plymouth Meeting, Pa., or Cayman Chemicals, Ann Arbor, Mich.). A solution of 10 μg of the ester was dried under a nitrogen stream and redissolved in 60 μl of a solution of 80% acetone and 20% 0.25 M NaOH. After incubation for 40 min at room temperature the resulting approximately 500 mM tock of LTA4 was kept at −80° C. for no more than a few days prior to use.
Immediately before the assay, LTA4 was diluted to a concentration of 10 μM in assay buffer (without DMSO) and added to the reaction mixture to a final concentration of 2 μM to initiate the enzyme reaction. […] The samples were then kept at 4° C. overnight to complete protein precipitation and centrifuged for 15 min at 1800 g.

human whole blood = assay: Ex vivo assay testing inhibitory activity in human whole blood after stimulation with calcium ionophor (LTB4 by ELISA); assay type: cell-based; settings: 0.5 h, Ionomycin 20 μM, 30 min at 37° C., read-out: hWBIC50
Description: (2) Ex vivo assay testing inhibitory activity in human whole blood after stimulation with calcium ionophor.
Human blood was collected in heparin-containing Vacutainer tubes. […] Then 4 μl of a series of compound dilutions (in DMSO) were added, followed by a 15 min incubation at 37° C. with gentle shaking. After that, blood samples were stimulated by adding Ionomycin (Calbiochem) to a final concentration of 20 μM. After another incubation at 37° C. for 30 min, samples were centrifuged for 5 min at 1800 g and 4° C. Supernatants were taken and LTB4 concentrations were determined using a commercially available enzyme-linked immunosobentassay (R&D Systems, Minneapolis, Minn.) according to the manufacturer's instructions.

colitis symptoms = settings: eight weeks of treatment; cited from earlier work

pIC50 [1] | pIC50 (human whole blood) | SMILES | colitis symptoms in a primate model (colitis symptoms)
4.70 to 5.30 | – | O=C(O)CN1CCC[C@H]1COc1ccc(Cc2ccccc2)cc1 [Example 35, [(S)-2-(4-Benzyl-phenoxymethyl)-pyrrolidin-1-yl]-acetic acid TFA salt] | –
> 5.30 | – | Cc1ccc(Oc2ccc(OC[C@@H]3CCCN3CCCC(=O)O)cc2)cc1 [Example 37, 4-[(S)-2-(4-p-Tolyloxy-phenoxymethyl)-pyrrolidin-1-yl]-butylic acid HCl] | –
> 5.30 | > 5.30 | c1csc(-c2ccc(Cc3ccc(OC[C@@H]4CCCN4)cc3)cc2)c1 [Example 117, (S)-2-[4-(2-thiophen-benzyl)-phenoxymethyl]-pyrrolidine hydrogen chloride salt] | –
– | – | CN(CCCOc1ccc(Cc2ccccc2)cc1)CCC(=O)O.Cl [SC57461] | significantly improved colitis symptoms
